Reference: patent US20210330731A1, “TOPICAL SALVE FORMULATIONS FOR DERMAL ALKALOID DELIVERY” (priority 2020, published 2021)

Experiment: Topical application of alkaloid-containing analgesic salve formulations, observed pain relief
Format: in vivo, patients
Conditions: for notable effect of secondary ingredient added to formulation: secondary ingredient in topical formulation
Excerpt: In most embodiments, three-cup batches of oil and wax (e.g.; 2¼ cup oil, ¾ cup wax or other hardening agent) were infused with an extract produced from at least two ounces of plant matter processed using the above method. In a preferred embodiment, an extract produced from around 4.5 to 6 ounces of herbal material yielded the best results as far as optimal pain relief for the amount of product used.
In one embodiment, a formulation for a kratom alkaloid-based topical product involves extracting alkaloids from kratom powder into a food-grade oil (such as coconut oil) at 160° F. The powder may be combined with a lecithin (such as a sunflower lecithin) to aid in extraction.
In a further embodiment, a formulation involves extracting alkaloids from kratom powder into a food-grade oil at 160° F. for two hours and adding one or more carrier oils. The carrier oils comprise black pepper oil, turmeric oil, peppermint oil and lemon oil. A hardening agent, such as beeswax, may also be added. Piperine (a black pepper alkaloid), curcumin (a metabolite of turmeric), peppermint oil, and lemon oil are intended as dermal carriers and absorption enhancers. Piperine is known to increase curcumin bioavailability.
In a further embodiment, a severe pain relief formulation involves extracting alkaloids from kratom powder into a food-grade oil at 160° F. for two hours and adding one or more carrier oils. The carrier oils comprise black pepper oil, turmeric oil, peppermint oil (alternately, eucalyptus or naioli oils will suffice since they contain similar compounds), lemon oil, magnesium oil, St John's Wort oil, arnica oil, parsley oil, cinnamon oil, lemongrass oil, ginger oil, arnica oil (comprises helenalin, fatty acids (inolenic, palmitic, linoleic, and myristic) thymol, ethers of thymol, thymohydroquinone dimethyl ether, and phlorol isobutyrate (2%)), Ylang Ylang (Cananga odorata) oil (comprises linalool, caryophyllene and germacrene), and/or Black Seed oil (comprises anethole, p-cymene, limonene, carvone and thymoquinone). […] FIG. 2 provides a table 200 listing primary herbal extract sources 210 and secondary ingredients 220, including but not limited to dermal absorption enhancers 222, alkaloid potentiators 224, neuropathic relief agents 226, and anti-inflammation agents 228.
In yet another embodiment, a severe pain and inflammation relief formulation involves extracting alkaloids from kratom powder into a food-grade oil at 160° F. for two hours and adding one or more carrier oils. The carrier oils comprise black pepper oil, turmeric oil, peppermint oil, lemon oil, magnesium oil, St. John's Wort oil, arnica oil, and ginger oil. The kratom powder may be a combination of concentrated kratom extract and kratom powder. […]

Molecule	notable effect of secondary ingredient added to formulation	increase of the effect of a formulation (duration) (added to the formulation as alkaloid potentiator)
magnesium stearate	relieved muscle spasms	–
copper salicylate	minor improvement to pain relief	–
Oc1ccc(/C=C/c2cc(O)cc(O)c2)cc1 [Trans-resveratrol]	–	approximately two hours or longer
O=c1c(O)c(-c2ccc(O)c(O)c2)oc2cc(O)cc(O)c12 [quercetin]	decreased pain and inflammation	–
